Data as given in paper PMC4897788, “Design, biological evaluation and 3D QSAR studies of novel dioxin-containing pyrazoline derivatives with thiourea skeleton as selective HER-2 inhibitors” (Scientific Reports, 2016).

How the values were obtained:
[1] = test system: MDA-MB-453 human breast cancer cell line; assay: Anti-proliferation assay (MTT), MDA-MB-453; assay type: cell-based; settings: 24 h
Method: (§1) MCF-7 human breast cancer cells was cultured in DMEM/10% fetal bovine serum, in 5% CO2 water saturated atmosphere at 37 °C. MDA-MB-453 human breast cancer cells was cultured in L-15 medium in 100% air at 37 °C. Cell suspensions (10000/mL) were prepared and 100 μL/well dispensed into 96-well plates (Costar) giving 1000 cells/well. The plates were returned to the incubator for 24 h to allow the cells to reattach. These compounds were initially prepared at 20 mM in DMSO. Aliquots (200 μL) were diluted into 20 mL culture medium giving 200 μM, and 10 serial dilutions of 3× prepared. Aliquots (100 μL) of each dilution were added to the wells, giving doses ranging from 100 μM to 0.005 μM. After a further incubated at 37 °C for 24 h in a humidified atmosphere with 5% CO2, the cell viability was assessed by the conventional 3-(4,5-dimethylthiazol-2-yl)-2,5-diphenyltetrazolium bromide (MTT) reduction assay and carried out strictly according to the manufacturer instructions (Sigma). The absorbance at 590 nm was recorded using LX300 Epson Diagnostic micro-plate reader. Then GI50 was calculated using SPSS 13.0 software.

[2] = test system: MCF-7 human breast cancer cell line; assay: Anti-proliferation assay (MTT), MCF-7; assay type: cell-based; settings: MCF7, 24 h
Method: as §1

VEGFR-2 = biological target: T1, VEGFR-2 (Homo sapiens, UniProt P35968); assay: VEGFR-2 inhibitory assay; assay type: biochemical
T1 construct: either the phosphorylated or nonphosphorylated form of the VEGFR-2 kinase domain
T1 sequence (P35968 834-1162 limits assumed, species assumed): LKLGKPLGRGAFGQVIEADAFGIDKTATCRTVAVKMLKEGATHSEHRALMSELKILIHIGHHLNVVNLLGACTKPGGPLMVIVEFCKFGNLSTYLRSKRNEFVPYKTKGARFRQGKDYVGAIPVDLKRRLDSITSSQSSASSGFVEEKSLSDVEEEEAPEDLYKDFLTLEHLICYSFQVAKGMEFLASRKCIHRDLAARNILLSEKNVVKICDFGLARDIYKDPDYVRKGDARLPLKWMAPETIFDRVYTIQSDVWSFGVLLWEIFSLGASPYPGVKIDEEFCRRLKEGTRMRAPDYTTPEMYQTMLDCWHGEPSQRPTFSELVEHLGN
Method: In a 96-well plate, 5 nM/L of either the phosphorylated or nonphosphorylated form of the VEGFR-2 kinase domain was incubated with selected compounds (10-point titration ranging from 4 μM to 0.1 μM), 1 μM/L gastrin substrate, 20 mM/L Tris-HCl, pH 7.5, 10 mM/L MgCl2, 100 mM/L NaCl, 1.5 mM/L EGTA, 1 mM/L DTT, 0.2 mM/L sodium orthovanadate, and 20 μg/mL BSA for 30 min at 25 °C. ATP was added at a final concentration of 11.8 μM and incubated for 60 min at room temperature. Eu-labeled antiphosphotyrosine pT66 antibody (Perkin- Elmer) was then used for detection. The fluorescence at 665 nM was measured with a Wallac Victor plate reader using a time delay of 50 μs. The experiment was performed for three independent times and in triplicate each time.

FAK = biological target: T2, FAK (Homo sapiens, UniProt Q05397); assay: FAK inhibitory assay (Kinase-Glo); assay type: biochemical
T2 construct: human-recombinant full-length FAK
T2 sequence (Q05397 whole entry): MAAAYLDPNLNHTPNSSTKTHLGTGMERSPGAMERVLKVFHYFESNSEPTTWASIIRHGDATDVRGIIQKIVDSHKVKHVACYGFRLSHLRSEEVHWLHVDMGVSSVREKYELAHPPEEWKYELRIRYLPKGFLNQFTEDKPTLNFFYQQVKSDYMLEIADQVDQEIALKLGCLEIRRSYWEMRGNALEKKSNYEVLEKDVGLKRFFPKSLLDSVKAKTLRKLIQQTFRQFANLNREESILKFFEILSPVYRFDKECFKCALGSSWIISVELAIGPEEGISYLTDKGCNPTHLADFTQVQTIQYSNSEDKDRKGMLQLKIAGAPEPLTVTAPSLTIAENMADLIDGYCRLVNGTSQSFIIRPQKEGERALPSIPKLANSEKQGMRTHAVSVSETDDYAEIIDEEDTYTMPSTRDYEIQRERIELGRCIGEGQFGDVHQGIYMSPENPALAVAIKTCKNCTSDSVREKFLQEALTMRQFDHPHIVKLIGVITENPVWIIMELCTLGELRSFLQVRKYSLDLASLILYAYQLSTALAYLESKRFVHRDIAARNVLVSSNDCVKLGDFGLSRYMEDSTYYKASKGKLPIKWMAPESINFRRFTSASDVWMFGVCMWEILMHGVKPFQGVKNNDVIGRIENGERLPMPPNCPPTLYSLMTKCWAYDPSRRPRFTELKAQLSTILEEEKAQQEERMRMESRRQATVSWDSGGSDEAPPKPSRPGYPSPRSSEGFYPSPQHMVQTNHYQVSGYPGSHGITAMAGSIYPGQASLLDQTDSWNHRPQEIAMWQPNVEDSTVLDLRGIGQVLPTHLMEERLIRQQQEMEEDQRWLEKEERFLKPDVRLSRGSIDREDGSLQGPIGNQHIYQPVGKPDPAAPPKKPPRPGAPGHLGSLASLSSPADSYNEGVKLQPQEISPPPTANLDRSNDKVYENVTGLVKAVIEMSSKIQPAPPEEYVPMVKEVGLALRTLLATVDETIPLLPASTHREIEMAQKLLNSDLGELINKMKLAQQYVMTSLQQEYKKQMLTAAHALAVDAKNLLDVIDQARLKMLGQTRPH
Method: Selected compounds were tested against FAK. In a typical study, human-recombinant full-length FAK was incubated in kinase buffer containing ATP and the substrate for 4 h at room temperature with or without the presence of the corresponding coumpounds. The final concentration of drug as 100, 30, 10, 3 μg/mL. The remaining ATP in solution was then quantified utilizing the Kinase-Glo-luminescence kit (Promega).

HER-3 = biological target: T3, HER-3 (Homo sapiens, UniProt P21860); assay: HER-3 inhibitory assay; assay type: biochemical
T3 construct: HER-3 cytoplasmic domain (HER-3-CD, amino acids 665–1339); His6 (N); made in house
T3 sequence (P21860 665-1339): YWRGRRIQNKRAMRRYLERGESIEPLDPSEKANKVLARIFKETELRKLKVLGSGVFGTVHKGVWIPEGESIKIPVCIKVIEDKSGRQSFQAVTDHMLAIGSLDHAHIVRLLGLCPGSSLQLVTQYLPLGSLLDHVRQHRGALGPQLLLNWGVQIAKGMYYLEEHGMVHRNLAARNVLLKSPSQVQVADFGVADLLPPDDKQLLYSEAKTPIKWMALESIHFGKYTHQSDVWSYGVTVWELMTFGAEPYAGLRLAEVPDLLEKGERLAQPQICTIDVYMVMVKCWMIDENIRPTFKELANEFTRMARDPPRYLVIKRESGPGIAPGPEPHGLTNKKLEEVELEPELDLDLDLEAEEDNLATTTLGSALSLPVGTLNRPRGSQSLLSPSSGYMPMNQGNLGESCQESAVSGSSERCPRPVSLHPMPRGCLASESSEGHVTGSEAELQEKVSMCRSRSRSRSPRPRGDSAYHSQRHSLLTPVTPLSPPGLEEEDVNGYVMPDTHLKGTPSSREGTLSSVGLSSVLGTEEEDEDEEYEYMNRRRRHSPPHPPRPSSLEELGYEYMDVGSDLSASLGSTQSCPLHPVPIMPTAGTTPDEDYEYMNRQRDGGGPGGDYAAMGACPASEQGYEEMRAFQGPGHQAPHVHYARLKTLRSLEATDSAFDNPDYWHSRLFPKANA
Method: A sequence that encodes (His)6 was located at the 5′ upstream to the HER-2 and EGFR sequences. Sf-9 cells were infected for 3 days for protein expression. Sf-9 cell pellets were solubilized at 0 °C in a buffer at pH 7.4 containing 50 mM HEPES, 10 mM NaCl, 1% Triton, 10 μM ammonium molybdate, 100 μM sodium vanadate, 10 μg/mL aprotinin, 10 μg/mL leupeptin, 10 μg/mL pepstatin, and 16 μg/mL benzamidine, HCl for 20 min followed by 20 min centrifugation. Crude extract supernatant was passed through an equilibrated Ni–NTA superflow packed column and washed with 10 mM and then 100 mM imidazole to remove nonspecifically bound material. Histidine-tagged proteins were eluted with 250 and 500 mM imidazole and dialyzed against 50 mM NaCl, 20 mM HEPES, 10% glycerol and 1 μg/mL each of aprotinin, leupeptin, and pepstatin for 2 h. The entire purification procedure was performed at 4 °C or on ice.
A 1.8 Kb cDNA encoded for human HER-3 cytoplasmic domain (HER-3-CD, amino acids 665–1339) was applied to perform the experiment using the same method as EGFR/HER-2.

[3] = Cytotoxicity test (MTT), NIH-3T3; assay type: cell-based; settings: mouse, NIH-3T3 mouse embryonic fibroblast cells, NIH3T3
Method: The cytotoxic activity in vitro was measured against mouse fibroblast NIH-3T3 cell using the MTT assay. Cells were cultured in a 96-well plate at a density of 5 × 10^5 cells and different concentrations of compounds were respectively added to each well. The incubation was permitted at 37 °C, 5% CO2 atmosphere for 24 h before the cytotoxicity assessments. 20 μL MTT reagent (4 mg/mL) was added per well 4 h before the end of the incubation. Four hours later, the plate was centrifuged at 1200 rcf for 5 min and the supernatants were removed, each well was added with 200 μL DMSO. The absorbance was measured at a wavelength of 490 nm (OD 490 nm) on an ELISA microplate reader. Three replicate wells were used for each concentration and each assay was measured three times, after which the average of IC50 was calculated. The cytotoxicity of each compound was expressed as the concentration of compound that reduced cell viability to 50% (IC50).

human erythrocytes = assay: Hemolysis test; assay type: cell-based; settings: lytic concentration 30%
Method: Hemolytic activity was assayed using fresh capillary human blood. Erythrocytes were collected by centrifuging the blood three times in chilled phosphate buffered saline (PBS at 4 °C) at 1000 × g for 10 min. The final pellet was resuspended in PBS to give a 2% w/v solution. Using a microtitre plate, 100 μL of the erythrocyte solution was added to dextran, PLL, stearyl-PLL or stearyl-PLL+ LDL (1–1000/μg/mL) in a volume of […]. Samples were then incubated for 3 h and the microtitre plate was centrifuged then at 1000 × g for 10 min and the supernatants (100 μL) transferred into a new microtitre plate. Hemoglobin release was determined spectrophotometrically using a microtitre plate reader (absorbance at 550 nm). Results were expressed as the amount of released hemoglobin induced by the compounds as a percentage of the total. Hemolysis test was tested according to the guide of biological evaluation of medical device (SFDA, China).

EGFR = EGFR (Homo sapiens, UniProt P00533); assay: EGFR autophosphorylation kinase assay (DELFIA/time-resolved fluorometry)
EGFR, sequence (P00533 669-1210): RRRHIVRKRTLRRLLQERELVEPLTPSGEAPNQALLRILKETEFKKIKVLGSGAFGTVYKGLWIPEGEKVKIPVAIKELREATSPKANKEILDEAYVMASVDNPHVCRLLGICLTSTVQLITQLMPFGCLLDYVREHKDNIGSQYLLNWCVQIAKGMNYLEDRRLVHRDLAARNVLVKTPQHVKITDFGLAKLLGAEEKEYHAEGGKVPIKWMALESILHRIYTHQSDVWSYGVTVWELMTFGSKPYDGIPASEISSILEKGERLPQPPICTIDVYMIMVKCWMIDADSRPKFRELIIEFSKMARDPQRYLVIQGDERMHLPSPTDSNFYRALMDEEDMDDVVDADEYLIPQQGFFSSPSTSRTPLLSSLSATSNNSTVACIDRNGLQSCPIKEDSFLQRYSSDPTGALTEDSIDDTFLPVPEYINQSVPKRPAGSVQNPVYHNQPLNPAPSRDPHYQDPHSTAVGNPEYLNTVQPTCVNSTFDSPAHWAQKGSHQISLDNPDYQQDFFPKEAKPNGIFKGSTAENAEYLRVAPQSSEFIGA
Method: (§2) Both EGFR and HER-2 kinase assays were set up to assess the level of autophosphorylation based on DELFIA/Time-Resolved Fluorometry. […] Then, 10 μL of 5× buffer (containing 20 mM HEPES, 2 mM MnCl2, 100 μM Na3VO4, and 1 mM DTT) and 20 μL of 0.1 mM ATP-50 mM MgCl2 was added for 1 h. Positive and negative controls were included in each plate by incubation of enzyme with or without ATP-MgCl2. At the end of incubation, liquid was aspirated and plates were washed three times with wash buffer. A 75 μL (400 ng) sample of europium-labeled anti-phosphotyrosine antibody was added to each well for another 1 h of incubation. […] The IC50 was obtained from curves of percentage inhibition with eight concentrations of compound. As the contaminants in the enzyme preparation are fairly low, the majority of the signal detected by the anti-phosphotyrosine antibody is from EGFR or HER-2. The experiment was performed for three independent times and in triplicate each time.

HER-2 = HER-2 (Homo sapiens, UniProt P04626); assay: HER-2 autophosphorylation kinase assay (DELFIA/time-resolved fluorometry); settings: for SI EGFR/HER-2: selectivity index, IC50 EGFR/IC50 HER-2
HER-2, sequence (P04626 676-1245): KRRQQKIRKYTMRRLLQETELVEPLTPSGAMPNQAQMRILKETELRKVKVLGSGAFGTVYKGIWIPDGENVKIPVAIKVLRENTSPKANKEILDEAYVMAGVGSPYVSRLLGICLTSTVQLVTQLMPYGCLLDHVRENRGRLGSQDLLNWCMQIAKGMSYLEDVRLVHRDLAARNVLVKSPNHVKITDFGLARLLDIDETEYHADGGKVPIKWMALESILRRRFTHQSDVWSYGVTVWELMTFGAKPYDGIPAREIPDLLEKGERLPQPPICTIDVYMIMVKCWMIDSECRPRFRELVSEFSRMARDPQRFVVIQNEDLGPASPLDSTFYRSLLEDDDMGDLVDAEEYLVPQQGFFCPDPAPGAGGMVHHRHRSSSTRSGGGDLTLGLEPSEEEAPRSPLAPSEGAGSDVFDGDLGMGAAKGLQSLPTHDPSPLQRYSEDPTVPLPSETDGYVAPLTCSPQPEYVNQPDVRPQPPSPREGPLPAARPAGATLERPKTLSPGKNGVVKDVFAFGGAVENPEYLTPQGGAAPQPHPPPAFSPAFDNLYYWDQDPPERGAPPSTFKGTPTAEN
Method: as §2

Structure (SMILES) | GI50 [1] | GI50 [2] | IC50 (VEGFR-2) | IC50 (FAK) | IC50 (HER-3) | GI50 at 24 h [3] | Hemolysis LC30 (human erythrocytes) | IC50 (EGFR) | IC50 (HER-2) | SI EGFR/HER-2 (HER-2)
Cc1ccc(C2CC(c3ccc4c(c3)OCCO4)=NN2C(N)=S)cc1 (centres unmarked) [Compound C9, 3-(2,3-dihydrobenzo[b][1,4]dioxin-6-yl)-5-(p-tolyl)-4,5-dihydro-1H-pyrazole-1-carbothioamide] | 1.38 ± 0.12 µM | 56.2 ± 5.41 µM | 11.5 ± 1.07 µM | 36.1 ± 3.21 µM | 6.32 ± 0.58 µM | 199.1 ± 1.6 µM | >10000 µg/mL | 65.2 ± 5.88 µM | 0.37 ± 0.03 µM | 176.1
NC(=S)N1N=C(c2ccc3c(c2)OCCO3)CC1c1ccc(C(F)(F)F)cc1 (centres unmarked) [Compound C17, 3-(2,3-dihydrobenzo[b][1,4]dioxin-6-yl)-5-(4-(trifluoromethyl)phenyl)-4,5-dihydro-1H-pyrazole-1-carbothioamide] | 0.55 ± 0.02 µM | 96.4 ± 9.22 µM | 5.16 ± 0.5 µM | 30.1 ± 2.76 µM | 8.45 ± 0.78 µM | 185 ± 3.15 µM | >10000 µg/mL | 79.7 ± 7.01 µM | 0.21 ± 0.02 µM | 379.6
NC(=S)N1N=C(c2ccc3c(c2)OCCO3)CC1c1ccc(Br)cc1 (centres unmarked) [Compound C13, 5-(4-bromophenyl)-3-(2,3-dihydrobenzo[b][1,4]dioxin-6-yl)-4,5-dihydro-1H-pyrazole-1-carbothioamide] | 3.24 ± 0.3 µM | 123 ± 11.2 µM | 25.8 ± 2.41 µM | 36.5 ± 3.42 µM | 2.46 ± 0.23 µM | 148 ± 2.02 µM | >10000 µg/mL | 82 ± 7.84 µM | 0.8 ± 0.07 µM | 102.5
CSc1ccc(C2CC(c3ccc4c(c3)OCCO4)=NN2C(N)=S)cc1 (centres unmarked) [Compound C15, 3-(2,3-dihydrobenzo[b][1,4]dioxin-6-yl)-5-(4-(methylthio)phenyl)-4,5-dihydro-1H-pyrazole-1-carbothioamide] | 0.95 ± 0.08 µM | 12.1 ± 1.17 µM | 8.75 ± 0.77 µM | 40.3 ± 3.88 µM | 17.9 ± 1.48 µM | 154 ± 1.75 µM | >10000 µg/mL | 27.5 ± 2.46 µM | 0.29 ± 0.02 µM | 94.8
COc1ccc(C2CC(c3ccc4c(c3)OCCO4)=NN2C(N)=S)cc1 (centres unmarked) [Compound C10, 3-(2,3-dihydrobenzo[b][1,4]dioxin-6-yl)-5-(4-methoxyphenyl)-4,5-dihydro-1H-pyrazole-1-carbothioamide] | 0.25 ± 0.02 µM | 18.2 ± 1.71 µM | 6.91 ± 0.64 µM | 64 ± 5.95 µM | 10.7 ± 0.96 µM | 204 ± 3.05 µM | >10000 µg/mL | 37.9 ± 3.75 µM | 0.08 ± 0.006 µM | 474.4
